Experiments:
[1] = MTT cytotoxicity assay, HEK293T normal cells; format: cell-based, human; conditions: human, HEK293T cells (normal cell line)
Description: (§1) The cytotoxicity of the desired compounds was assessed through MTT assay against two human cancer cell lines, human breast cancer (MCF-7) and colon cancer (HCT116), and one normal cell line, human embryonic kidney 293T (HEK293T). CPT and etoposide (VP-16) were used as positive controls. The compounds were incubated with cells for 72 h in a five-dose assay ranging from 0.01 to 100 µΜ. After the drug treatments, MTT solution was added to test the percentage growth of tumor cells.
(§2) The cells were cultured on RPMI 1640 Medium at 37 °C in a humidified atmosphere with 5% CO2. The cytotoxicities of the target compounds were evaluated through MTT assay against two human cancer cell lines (human breast cancer MCF-7 and human colon cancer HCT116). For the compound treatment experiments, the cancer cells were treated with the compounds (pre-dissolved in DMSO) via a five-dose assay ranging from 10^−8 to 10^−4 M. After incubation for 72 h at 37 °C, MTT solution (20 μL, 2.5 mg/mL) in PBS (PBS without MTT as the blank) was added to each well of the culture plate. After incubation for 4 h, the formazan crystal formed in the well was dissolved in 100 μL of DMSO for an optical density of 570 nm. The IC50 value was calculated using nonlinear regression analysis (GraphPad Prism). Every experiment was conducted three times, independently.

[2] = system: human embryonic kidney 293T (HEK293T) cells; test: MTT cytotoxicity assay, HEK293T normal cells; format: cell-based; conditions: 72 h, normal cell line
Description: as §1, §2

[3] = target: T1, calf thymus Top1 (Bos taurus, UniProt F1MN93); test: Top1-mediated DNA relaxation assay; format: biochemical; conditions: for supercoiled DNA remaining: compound at 125 μM; for Relaxation Assay (Top1 inhibitory activity): compounds at 50 µM, semi-quantitative, relative to CPT at 50 µM
T1 construct: 1 unit of calf thymus Top1; from tissue; host or cells: calf thymus
T1 sequence (F1MN93 1-767): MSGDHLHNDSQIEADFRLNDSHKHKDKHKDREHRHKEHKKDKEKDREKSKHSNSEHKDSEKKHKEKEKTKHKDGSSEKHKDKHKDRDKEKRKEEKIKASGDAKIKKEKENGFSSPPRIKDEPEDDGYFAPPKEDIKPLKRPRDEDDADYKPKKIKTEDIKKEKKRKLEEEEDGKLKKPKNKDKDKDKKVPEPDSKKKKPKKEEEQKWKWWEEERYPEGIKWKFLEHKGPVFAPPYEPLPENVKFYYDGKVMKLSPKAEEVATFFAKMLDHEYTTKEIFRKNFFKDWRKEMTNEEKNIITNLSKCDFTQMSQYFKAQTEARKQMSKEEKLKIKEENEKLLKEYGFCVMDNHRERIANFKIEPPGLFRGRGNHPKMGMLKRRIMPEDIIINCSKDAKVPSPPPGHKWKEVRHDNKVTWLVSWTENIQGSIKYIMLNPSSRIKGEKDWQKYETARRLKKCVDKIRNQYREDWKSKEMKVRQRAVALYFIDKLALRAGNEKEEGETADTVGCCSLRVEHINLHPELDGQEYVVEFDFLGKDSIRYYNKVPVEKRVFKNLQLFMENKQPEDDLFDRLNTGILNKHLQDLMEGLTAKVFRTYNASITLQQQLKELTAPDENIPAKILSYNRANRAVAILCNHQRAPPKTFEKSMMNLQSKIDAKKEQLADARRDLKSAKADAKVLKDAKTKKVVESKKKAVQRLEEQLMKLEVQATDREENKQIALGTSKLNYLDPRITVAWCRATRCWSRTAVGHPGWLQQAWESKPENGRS
Description: The synthesized compounds 6–37 were evaluated for Top1 inhibitory activity by measurement of the Top1-mediated DNA relaxation assay. The compounds were tested at 50 µΜ using CPT as positive control, and the results were semi-quantitatively expressed relative to CPT at 50 µΜ as follows: ++++, more than 80% activity; +++, between 40% and 79% activity; ++, between 10% and 39% activity; +, less than 10% activity. […] In phenyl A, the 4-position halogen (X) remarkably affected the inhibition against Top1. […] In phenyl B, the introduction of substituents at the 3-position was beneficial for the Top1 inhibition, and the derivatives presented good tolerance of the 3-substituents, since compounds 8 (++++) and 13 (+++) with electron-donating -Me or -OMe and also compound 19 (+++) with electron-withdrawing -Br had good inhibition against Top1. For substituents at the 4-position, the strong electron-withdrawing -CF3 (10, +++) and -F (15, +++) increased the Top1 inhibitory activity compared to compound 6 (R = H), while the weak electron-withdrawing -Cl (17, +) and the electron-donating -Me (9, +) and -OMe (14, +) decreased the activity, with the exception of tert-Bu (11, +++).
As previously mentioned, compound 8 had the best inhibition activity against Top1, and therefore was selected for further investigation. A semi-quantitative Top1-mediated relaxation assay of compound 8 was performed at concentrations of 0.2, 1, 5, 25 and 125 μM.
The compounds were tested for their Top1 inhibitory activity using a Top1-mediated relaxation assay. Briefly, the reaction mixture (20 μL) with 0.5 μg of supercoiled pBR322 DNA in relaxation buffer (10 mM Tris-HCl, pH 7.5, 50 mM KCl, 5 mM MgCl2, 15 μg/mL BSA, 40 μg/mL DTT) was incubated with 1 unit of calf thymus Top1 in the absence or in the presence of the compound for 30 min at 37 °C. Then, the reaction solution was added with 6 × loading buffer (4 μL) and was analyzed using a 0.8% agarose gel in TBE buffer at 4.6 V/cm for 1.5 h. Gel was stained with 1 × GelRed for 30 min and subsequently visualized with a UV transilluminator.

[4] = system: human breast cancer (MCF-7) cells; test: MTT cytotoxicity assay, MCF-7; format: cell-based; conditions: five doses 0.01-100 µM
Description: as §1, §2

[5] = system: human colon cancer (HCT116) cells; test: MTT cytotoxicity assay, HCT116; format: cell-based; conditions: five doses 0.01-100 µM
Description: as §1, §2

[6] = semi-quantitative relaxation assay (Figure 3)

Row | SMILES | melting point | IC50 at 72 h [1] | IC50 [2] | Top1 inhibition compared with CPT ([3]; compound at 25 μM, semi-quantitative relaxation assay (Figure 3)) | supercoiled DNA remaining [3, 6] | IC50 ([4]; 72 h) | IC50 ([4]; Homo sapiens, MCF7, 72 h) | IC50 ([5]; 72 h) | IC50 ([5]; Homo sapiens, HCT-116, 72 h) | Relaxation Assay (Top1 inhibitory activity) [3]
1 | Cc1cccc(/C=C/c2nc(-c3ccc(F)cc3)cs2)c1 [Compound 8, (E)-2-(3-methylstyryl)-4-(4-fluorophenyl)thiazole] | 148 to 149 °C | > 10 µM | 10.2 ± 0.68 µM | equipotent Top1 inhibition with CPT | 75% |  |  |  |  | 
2 | CC(C)(C)c1ccc(/C=C/c2nc(-c3ccc(Cl)cc3)cs2)cc1 [Compound 23, (E)-4-(4-chlorophenyl)-2-(4-(tert-butyl)styryl)thiazole] | 74 to 75 °C | > 10 µM | 18.7 ± 1.37 µM |  |  | 7.22 ± 0.4 µM | < 10 µM | 2.87 ± 0.26 µM | < 5 µM | + (less than 10% activity)
3 | COc1ccc(/C=C/c2nc(-c3ccc(Br)cc3)cs2)cc1 [Compound 32, (E)-4-(4-bromophenyl)-2-(4-methoxystyryl)thiazole] | 189 to 191 °C |  |  |  |  |  | > 100 µM |  | > 100 µM | + (less than 10% activity)
4 | CC[C@@]1(O)C(=O)OCc2c1cc1n(c2=O)Cc2cc3ccccc3nc2-1 [CPT, camptothecin, reference compound] |  | 0.1 ± 0.003 µM |  |  | 58% |  | 0.34 ± 0.026 µM |  | 0.012 ± 0.001 µM | 
5 | CC(C)(C)c1ccc(/C=C/c2nc(-c3ccc(F)cc3)cs2)cc1 [Compound 11, (E)-2-(4-tert-butylstyryl)-4-(4-fluorophenyl)thiazole] | 146 to 148 °C | > 10 µM | 12 ± 2.45 µM |  |  | 6.31 ± 0.51 µM | < 10 µM |  |  | 
6 | COc1ccc(/C=C/c2nc(-c3ccc(F)cc3)cs2)cc1 [Compound 14, (E)-2-(4-methoxystyryl)-4-(4-fluorophenyl)thiazole] | 124 to 125 °C |  |  |  |  |  | > 100 µM |  | > 100 µM | + (less than 10% activity)
7 | COc1ccccc1/C=C/c1nc(-c2ccc(Br)cc2)cs1 [Compound 30, (E)-4-(4-bromophenyl)-2-(2-methoxystyryl)thiazole] | 110 to 112 °C |  |  |  |  |  | > 100 µM |  | > 100 µM | + (less than 10% activity)
8 | Fc1ccc(-c2csc(/C=C/c3ccc(Cl)cc3)n2)cc1 [Compound 17, (E)-2-(4-chlorostyryl)-4-(4-fluorophenyl)thiazole] | 171 to 173 °C |  |  |  |  |  | 43.3 ± 1.42 µM |  | 27.1 ± 0.41 µM | + (less than 10% activity)
9 | COc1cccc(/C=C/c2nc(-c3ccc(Br)cc3)cs2)c1 [Compound 31, (E)-4-(4-bromophenyl)-2-(3-methoxystyryl)thiazole] | 112 to 113 °C |  |  |  |  |  | 45.8 ± 4.47 µM |  | 40.3 ± 7.8 µM | + (less than 10% activity)
10 | Fc1ccc(-c2csc(/C=C/c3ccc(Cl)cc3Cl)n2)cc1 [Compound 20, (E)-2-(2,4-Dichlorostyryl)-4-(4-fluorophenyl)thiazole] | 131 to 133 °C |  |  |  |  |  | 72.4 ± 2.15 µM |  | 54.8 ± 0.73 µM | + (less than 10% activity)
11 | Cc1ccc(/C=C/c2nc(-c3ccc(F)cc3)cs2)cc1 [Compound 9, (E)-2-(4-methylstyryl)-4-(4-fluorophenyl)thiazole] | 164 to 166 °C |  |  |  |  |  | 65.5 ± 3.11 µM |  | 21.9 ± 4.29 µM | + (less than 10% activity)

— publication PMC8838847, “Design, Synthesis and Cytotoxicity of Thiazole-Based Stilbene Analogs as Novel DNA Topoisomerase IB Inhibitors” (Molecules, 2022)
